In article PMC7256013, “Preclinical evaluation of cationic DOTA-triarginine-lipid conjugates for theranostic liquid brachytherapy” (Nanotheranostics, 2020):
Residues, ends and D or L forms follow the SMILES beside them. *: point of attachment. DOTA = O=C(O)CN1CCN(CC(=O)O)CCN(CC(=O)*)CCN(CC(=O)O)CC1; Stearoyl = CCCCCCCCCCCCCCCCCC(=O)*; Palmitoyl = CCCCCCCCCCCCCCCC(=O)*

Columns and labels:
[1] = Intratumoral distribution of radioactivity, voxel frequency distribution from PET
Description: (§2) Mice were injected intratumorally with ^64Cu-compounds in concentrations of 40 MBq/mL. During the scan procedures, mice were anaesthetized using 3-4 % sevoflurane (Abbott Scandinavia AB, Sweden) mixed with 35% O2 and 65% medical grade air and placed on heating pads. Two mice were positioned side-by-side, separated by a 6 mm polystyrene block for PET/CT imaging using Inveon® small animal PET/CT system with CT based PET image attenuation (Siemens Medical Systems, Malvern, PA, USA). The protocol included a 12-minute PET scan, followed by a CT scan. Mice were fixed on a bed inside the scanner with the syringe placed and the needle fixed centrally in the tumor and ready for injection. Upon initiation of the first scan, intratumoral injections were done manually over 30 seconds, to investigate the initial dynamics of the tracer diffusion. Following this, two further scans were included; at six hours (5 minutes scan time) and 24 hours (12 minutes scan time) after injection. Reconstruction of the PET scans were performed using maximum a posteriori (MAP) reconstruction algorithm (voxel size: 0.815 x 0.815 x 0.796 mm; resolution (FWHM) 1.2 mm). The injection scan was reconstructed in 4 x 30 second and 10 x 60 second time frames to observe the dynamics of tracer diffusion. The two last time points were reconstructed in a single time frame.
(§3) Image analysis was performed using commercially available Inveon software (Siemens Medical Systems, Malvern, PA, USA). Regions of interest (ROIs) were manually drawn based on the co-registered PET/CT images. The following ROIs were constructed; tumors (complete volume delineated), liver, spleen, kidney, bladder, and blood. Blood activity was estimated from a constructed ROI covering the left ventricular lumen of the heart. ROIs in the left ventricle and abdominal aorta were subsequently segmented to only include the voxels displaying above 80% of maximum activity with the original ROI. From the obtained uptake values all data was calculated into %ID/g for each organ and as %ID in tumors by adjusting for CT based tumor volume. Furthermore, voxel values from tumor ROIs were used to generate histograms for substance diffusion over time in the tumor region.
Note that the first point in each plot represents the percentage of voxels with radioactivity concentrations lower than 1.6 %ID/g. These voxels are considered empty, meaning that the corresponding tumor region is non-radioactive.

[2] = Tumor retention and biodistribution by PET/CT after intratumoral injection; settings: mean ± SEM; for Absolute retention of radioactivity in tumors: PET; for tumor retention: CT26 tumor, PET/CT
Description: CT26 wildtype cells (murine colon carcinoma, ATCC, Virginia, US) were cultured RPMI (Roswell Park Memorial Institute) medium supplemented with 10 % heat-inactivated Fetal Calf Serum (FCS) and 1 % Penicillin-Streptomycin (Invitrogen, Carlsbad, CA., US) retained in 5 % CO2 incubator at 37 °C. Immunocompetent female Balb/C mice (Charles River, Wilmington, MA., USA) were inoculated with tumor cells after one week of adaptation. All 20 mice included were inoculated subcutaneously with 3 x 10^5 CT26 wildtype cells in 100 µL medium on the right flank and hereafter monitored for weight and tumor size continuously for study purposes and to monitor the health of the mice. Tumor sizes were calculated from the formula of 0.52 x lenght^2 x width, as measured by external caliper. Animals were included in the study when tumors were approximately 400 mm^3.
as §2, §3

[3] = Ex vivo well counting of tumor and organs; settings: ex vivo after the 24-hour scan, mean ± SEM
Description: After the completion of PET/CT imaging, mice were sacrificed and tumor, spleen, and liver tissue were collected and well counted (Wizard, Perkin Elmer, US). Tissue radioactivity was recorded and corrected for isotope decay and well counter efficiency. Final results are presented in %ID/organ calculated from activity and the tissue weight.

[4] = Partitioning of radiolabeled surfactant into liposomes (SEC, PD-10); type: physicochemical; settings: 37 °C, 60 min, for D3R-C18 at lipid 0.36 and 0.72 mM
Description: Three different liposomes types were prepared: (1) POPC only, (2) POPC-POPG (9:1), (3) commercially available stealth lipid mixture (see above). POPC or the POPC-POPG mixture was freeze- dried from tert-butanol:water (9:1). The resulting lyophilizate or the stealth lipid mixture (187.5 mg) was then hydrated with ISO-HEPES-NaCl (5.0 mL) at 65 ℃ for 60 minutes by magnetic stirring. This was followed by sizing through a mini-extruder with a cut-off size of 100 nm. Size, PDI and zeta potential of all three preparations were measured (Table 1). The liposomes were diluted to lipid concentrations of 0.4, 1.0 and 4.0 mM for partitioning studies.
A dispersion of ^64Cu-D3R-C16 (200 μM) in ISO-HEPES-NaCl (100 µL) was added to POPC liposomes (900 µL, 0.4 mM). The resulting mixture was magnetically stirred at 37 ℃. Mixtures were separated by size-exclusion chromatography (SEC) at 10, 30, 60, 120 and 180 minutes after addition. An aliquot (100 µL) was applied to a PD-10 cartridge and eluted with ISO-HEPES-NaCl. […] The radioactivities of the two collected fractions and the column were measured by dose calibrator. […] The partitioning of the radiolabeled constructs into liposomes was calculated as the ratio of the radioactivity in the liposomal fraction to the total radioactivity of the liposomal fraction plus the column. […] The mixtures were analyzed by SEC by applying 200 µL to a PD-10 cartridge (see above). […]

[5] = Critical micelle concentration by surface tension measurement (Du Noüy); type: physicochemical; settings: 0.49-250 µM
Description: An Ez-pi+ surface tensiometer, with dyneprobe (diameter: 0.51 mm) and polypropylene sample cuvettes were purchased from Kibron to measure the surface tension.
(§1) D3R-C16 or D3R-C18 was dispersed in ISO-HEPES-NaCl or ISO-HEPES-Sucrose for a final concentration of 250 μM as stock solutions. Sample series were prepared by diluting the stock solutions with ISO-HEPES-NaCl or ISO-HEPES-Sucrose into concentrations of 125, 62.5, 31.25, 15.63, 7.81, 3.91, 1.95, 0.98 and 0.49 μM. The surface tension of the sample was measured by the Du Noüy method with a platinum probe. For each sample, the measurements were repeated until three consecutive measurements varied with less than 1 mN/m between them. Based on the critical micelle concentration of D3R-C18, a micellar dispersion of D3R-C18 in ISO-HEPES-Sucrose (2.0 mM) was prepared. The zeta potential of the D3R-C18 micelles was measured on a Zetasizer (Malvern).

CT26 cells = test: Cytotoxicity, MTS assay; type: cell-based, murine; settings: 4000 cells/well, 24 h incubation with compound, then 48 h without, absorbance 490 nm
Description: CT26 (murine colon carcinoma) was purchased from ATTC (Rockville) and cultured in DMEM medium supplemented with 10% fetal calf serum and pen-strep (Invitrogen Inc) at 37 °C and 5% CO2 in a humidified atmosphere. A commercial MTS assay was used to assess cytotoxicity. (Promega, CellTiter 96® AQueous One Solution Cell Proliferation Assay).
Cells were plated onto 96 well plates at a density of 4000 cells/well the day before the start of experiment. The original culture medium was replaced by medium containing increasing amounts of the indicated agents. After 24 h incubation with D3R-C16 or D3R-C18, the medium was removed and the cells were further incubated for another 48 hours. To measure metabolically active cells, 100 µL of MTS solution was added to the wells and incubated until sufficient amount of color was developed and within the linear range. The absorbance was measured at 490 nm using a microplate reader (Sunrise, Tecan).

[6] = Micelle size (DLS) and zeta potential; type: physicochemical; settings: for PDI of micelles / average size of micelles (Z-average): 2.0 mM in ISO-HEPES, DLS; for average size of micelles (Z-average): broad distribution
Description: Liposomes were prepared using a mini-extruder (Avanti Polar Lipids) or a LIPEX Thermobarrel Pressure Extruder (10 mL, Northern Lipids). The hydrodynamic size and zeta potential of liposomes were measured by dynamic light scattering (DLS) on a Zetasizer (Malvern). Intensity weighted lognormal mean sizes are reported, unless otherwise noted. Sizes were measured in ISO-HEPES-NaCl and zeta potentials were measured in ISO-HEPES-Sucrose. Lipid concentrations were measured by ICP-MS (Thermo Scientifc, iCAP Q) by quantifying the phosphorous content of liposome samples against an internal standard of gallium (10 ppb). Sephadex G-25 PD-10 columns (8.3 mL bed volume) were purchased from GE Healthcare.
as §1

[7] = 5 minutes after the start of the PET scan
[8] = 12 minutes post intratumoral injection, 40 MBq/mL
[9] = in ISO-HEPES-NaCl (10 mM HEPES, 150 mM NaCl, pH 7.4)
[10] = in ISO-HEPES-Sucrose (10 mM HEPES, 300 mM sucrose, pH 7.4)

O=C([O-])CN1CCN(CC(=O)[O-])CCN(CC(=O)O)CCN(CC(=O)O)CC1.[64Cu+2] [64Cu-DOTA]
non-radioactive voxels in tumor (<1.6 %ID/g) [1, 7]: less than 10% | non-radioactive voxels in tumor (<1.6 %ID/g) ([1]; 6 h): More than 40% | Absolute retention of radioactivity in tumors ([2]; 0.25 min): 78 ± 37 %ID/g | Absolute retention of radioactivity in tumors ([2]; 0.75 min): 130 ± 13 %ID/g | Absolute retention of radioactivity in tumors ([2]; 1.25 min): 127 ± 14 %ID/g | Absolute retention of radioactivity in tumors ([2]; 1.75 min): 123 ± 14 %ID/g | Absolute retention of radioactivity in tumors ([2]; 2.5 min): 120 ± 14 %ID/g | Absolute retention of radioactivity in tumors ([2]; 3.5 min): 115 ± 14 %ID/g | Absolute retention of radioactivity in tumors ([2]; 4.5 min): 111 ± 14 %ID/g | Absolute retention of radioactivity in tumors ([2]; 5.5 min): 108 ± 14 %ID/g | Absolute retention of radioactivity in tumors ([2]; 6.5 min): 105 ± 14 %ID/g | Absolute retention of radioactivity in tumors ([2]; 7.5 min): 102 ±14 %ID/g | Absolute retention of radioactivity in tumors ([2]; 8.5 min): 100 ± 14 %ID/g | Absolute retention of radioactivity in tumors ([2]; 9.5 min): 97 ± 13 %ID/g | Absolute retention of radioactivity in tumors ([2]; 10.5 min): 94 ± 13 %ID/g | Absolute retention of radioactivity in tumors ([2]; 11.5 min): 92 ± 12 %ID/g | tumor retention [2, 8]: 52 ± 4 %ID/tumor | Absolute retention of radioactivity in tumors ([2]; 6 h): 4 ± 1 %ID/g | tumor retention ([2]; 6 hours post intratumoral injection): 2.4 ± 0.7 %ID/tumor | Absolute retention of radioactivity in tumors ([2]; 24 h): 2 ± 0.8 %ID/g | tumor retention ([2]; 24 hours post intratumoral injection): 1.4 ± 0.4 %ID/tumor | Accumulation of radioactivity in liver [3]: 1 ± 0.2 ID%/g | Accumulation of radioactivity in spleen [3]: 0.3 ± 0.05 ID%/g | Accumulation of radioactivity in tumor [3]: 1 ± 0.3 ID%/g

[Cl][64Cu][Cl] [Free 64CuCl2]
non-radioactive voxels in tumor (<1.6 %ID/g) [1, 7]: less than 10% | Absolute retention of radioactivity in tumors ([2]; 0.25 min): 97 ± 19 %ID/g | Absolute retention of radioactivity in tumors ([2]; 0.75 min): 167 ± 50 %ID/g | Absolute retention of radioactivity in tumors ([2]; 1.25 min): 164 ± 53 %ID/g | Absolute retention of radioactivity in tumors ([2]; 1.75 min): 162 ± 54 %ID/g | Absolute retention of radioactivity in tumors ([2]; 2.5 min): 159 ± 53 %ID/g | Absolute retention of radioactivity in tumors ([2]; 3.5 min): 156 ± 54 %ID/g | Absolute retention of radioactivity in tumors ([2]; 4.5 min): 154 ± 53 %ID/g | Absolute retention of radioactivity in tumors ([2]; 5.5 min): 152 ± 53 %ID/g | Absolute retention of radioactivity in tumors ([2]; 6.5 min): 150 ± 53 %ID/g | Absolute retention of radioactivity in tumors ([2]; 7.5 min): 148 ± 52 %ID/g | Absolute retention of radioactivity in tumors ([2]; 8.5 min): 146 ± 52 %ID/g | Absolute retention of radioactivity in tumors ([2]; 9.5 min): 145 ± 53 %ID/g | Absolute retention of radioactivity in tumors ([2]; 10.5 min): 143 ± 52 %ID/g | Absolute retention of radioactivity in tumors ([2]; 11.5 min): 142 ± 51 %ID/g | tumor retention [2, 8]: 45 ± 5 %ID/tumor | Absolute retention of radioactivity in tumors ([2]; 6 h): 18 ± 3 %ID/g | Absolute retention of radioactivity in tumors ([2]; 24 h): 10 ± 1 %ID/g | Accumulation of radioactivity in liver [3]: 14 ± 1 ID%/g | Accumulation of radioactivity in spleen [3]: 2 ± 0.6 ID%/g | Accumulation of radioactivity in tumor [3]: 11 ± 3 ID%/g

CCCCCCCCCCCCCCCC(=O)N[C@@H](CCCNC(=N)N)C(=O)N[C@@H](CCCNC(=N)N)C(=O)N[C@@H](CCCNC(=N)N)C(=O)N[C@@H](CCCCNC(=O)CN1CCN(CC(=O)O)CCN(CC(=O)O)CCN(CC(=O)O)CC1)C(N)=O [D3R-C16] (Palmitoyl-RRRK(DOTA)-NH2)
stealth liposome partitioning, 177Lu label compared with 64Cu label [4]: no significant difference | CMC [5, 9]: about 40 µM | CMC [5, 10]: above 100 µM | median lethal concentration (LC50) (CT26 cells): above 100 µM | PDI of micelles [6]: 0.3 | average size of micelles (Z-average) [6]: 10 nm

CCCCCCCCCCCCCCCCCC(=O)N[C@@H](CCCNC(=N)N)C(=O)N[C@@H](CCCNC(=N)N)C(=O)N[C@@H](CCCNC(=N)N)C(=O)N[C@@H](CCCCNC(=O)CN1CCN(CC(=O)O)CCN(CC(=O)O)CCN(CC(=O)O)CC1)C(N)=O [D3R-C18] (Stearoyl-RRRK(DOTA)-NH2)
CMC [5, 9]: about 10 µM | CMC [5, 10]: above 100 µM | median lethal concentration (LC50) (CT26 cells): above 100 µM | PDI of micelles [6]: 0.3 | average size of micelles (Z-average) [6]: 10 nm | zeta potential of micelles ([6]; 2.0 mM micellar dispersion in ISO-HEPES-Sucrose, Zetasizer): 20.7 ± 0.5 mV
